Reference: article PMC6136360, “Novel group of tyrosyl-DNA-phosphodiesterase 1 inhibitors based on disaccharide nucleosides as drug prototypes for anti-cancer therapy” (Journal of Enzyme Inhibition and Medicinal Chemistry, 2018)

Target: T1, TDP1 (Homo sapiens, UniProt Q9NUW8)
T1 construct: made in house; host or cells: E. coli
Experiment: Real-time fluorescence detection of TDP1 activity, single-stranded FAM/BHQ biosensor
Format: biochemical
Details: 37 compared to 36; 42 compared to 41; ratio of IC50
Procedure: Conditions and details for our real-time detection of TDP1 activity using the single-stranded and hairpin fluorescent biosensors were reported in our previous work[47]. Briefly, the approach consists in fluorescence intensity measurement of the reaction of quencher removal from the fluorophore-quencher coupled DNA-oligonucleotide catalysed by TDP1 in the presence of inhibitor and in the absence of it (the control samples contained 1% DMSO). Reaction mixtures (200 µl) contained TDP1 buffer (50 mM Tris-HCl, pH 8.0, 50 mM NaCl, 7 mM β-mercaptoethanol), oligonucleotide (50 nM substrate of TDP1), testable inhibitor and purified TDP1 (1.5 nM). The reactions were incubated at a constant temperature of 26 °C in a POLARstar OPTIMA fluorimeter, BMG LABTECH, GmbH, to measure fluorescence every 55 s (Ex485/Em520 nm) during the linear phase (here data from 0 to 8 min). The average values of half maximal inhibitory concentration (IC50) were determined using an eleven-point concentration response curve in three independent experiments and calculated using MARS Data Analysis 2.0 (BMG LABTECH).
To discover inhibitors of TDP1 we recently developed original single-stranded and hairpin fluorophore–quencher coupled DNA-biosensors for real-time measurement of TDP1 cleavage activity. The single-stranded substrate is a 16-mer oligonucleotide containing both 5′-FAM fluorophore donor and a quenching 3′-BHQ moiety (Figure 1(A)). When the quencher is removed by TDP1, the fluorescence intensity increases and can be measured by fluorimeter (TDP1 catalysed reaction on biosensor is shown in Figure 3(A). Fluorescence intensity declines in the presence of inhibitor, the resulting curves of the dependence of TDP1 residual activity as a function of the concentration of inhibitors were obtained using 4-parameter logistic regression fit, which was used to calculate IC50 values[47]^,[58].
For primary screening, the effect of a large group of disaccharide nucleosides and their hydrophobic derivatives on human recombinant TDP1 activity has been evaluated by fluorescent method on a single-stranded substrate described above.

T1 sequence (Q9NUW8 whole entry): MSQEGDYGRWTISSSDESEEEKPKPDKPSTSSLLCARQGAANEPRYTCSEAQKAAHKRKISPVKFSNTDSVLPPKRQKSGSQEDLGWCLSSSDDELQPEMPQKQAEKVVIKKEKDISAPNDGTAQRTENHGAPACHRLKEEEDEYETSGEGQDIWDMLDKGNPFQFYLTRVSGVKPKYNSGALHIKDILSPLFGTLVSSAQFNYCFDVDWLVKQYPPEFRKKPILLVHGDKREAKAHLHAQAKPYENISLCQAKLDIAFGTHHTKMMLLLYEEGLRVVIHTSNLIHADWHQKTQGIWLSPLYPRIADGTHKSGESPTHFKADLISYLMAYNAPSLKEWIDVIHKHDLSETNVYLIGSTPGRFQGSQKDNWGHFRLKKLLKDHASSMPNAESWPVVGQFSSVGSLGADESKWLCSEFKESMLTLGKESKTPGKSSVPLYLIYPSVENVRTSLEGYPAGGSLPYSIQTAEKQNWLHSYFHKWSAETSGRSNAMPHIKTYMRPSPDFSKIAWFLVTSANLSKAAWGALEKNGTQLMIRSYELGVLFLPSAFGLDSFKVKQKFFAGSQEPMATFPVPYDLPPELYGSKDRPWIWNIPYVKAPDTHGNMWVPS

| Increase of efficiency of TDP1 inhibition by appending TBDPS at 5'-position | SMILES |
| --- | --- |
| about 3.5 times | CC(C)(C)[Si](OC[C@H]1O[C@@H](n2cc(I)c(=O)[nH]c2=O)C[C@@H]1O[C@@H]1O[C@H](COC(=O)c2ccccc2)[C@@H](OC(=O)c2ccccc2)[C@H]1OC(=O)c1ccccc1)(c1ccccc1)c1ccccc1 [Compound 42] |
| about 1.6 times | CC(C)(C)[Si](OC[C@H]1O[C@@H](n2ccc(NC(=O)c3ccccc3)nc2=O)C[C@@H]1O[C@@H]1O[C@H](COC(=O)c2ccccc2)[C@@H](OC(=O)c2ccccc2)[C@H]1OC(=O)c1ccccc1)(c1ccccc1)c1ccccc1 [Compound 37] |

Same assay, conditions: single-stranded fluorescent biosensor 50 nM, TDP1 1.5 nM, 26 °C; read-out: IC50 (half-maximal inhibitory concentration) of TDP1 activity

| IC50 [nM] | SMILES |
| --- | --- |
| 800 ± 100 | CC(C)(C)[Si](OC[C@H]1O[C@@H](n2cc(I)c(=O)[nH]c2=O)C[C@@H]1O[C@@H]1O[C@H](COC(=O)c2ccccc2)[C@@H](OC(=O)c2ccccc2)[C@H]1OC(=O)c1ccccc1)(c1ccccc1)c1ccccc1 [Compound 42] |
| 1500 ± 200 | O=C(Nc1ccn([C@H]2C[C@H](O[C@@H]3O[C@H](COC(=O)c4ccccc4)[C@@H](OC(=O)c4ccccc4)[C@H]3OC(=O)c3ccccc3)[C@@H](CO)O2)c(=O)n1)c1ccccc1 [Compound 36] |
| 1000 ± 100 | Cc1cn([C@H]2C[C@H](O[C@@H]3O[C@H](COC(=O)c4ccccc4)[C@@H](OC(=O)c4ccccc4)[C@H]3OC(=O)c3ccccc3)[C@@H](CO[C@@H]3O[C@H](COC(=O)c4ccccc4)[C@@H](OC(=O)c4ccccc4)[C@H]3OC(=O)c3ccccc3)O2)c(=O)[nH]c1=O [Compound 33] |
| 400 ± 100 | CC(C)[Si]1(C(C)C)OC[C@H]2O[C@@H](n3ccc(NC(=O)c4ccccc4)nc3=O)[C@H](O[C@@H]3O[C@H](COC(=O)c4ccccc4)[C@@H](OC(=O)c4ccccc4)[C@H]3OC(=O)c3ccccc3)[C@@H]2O[Si](C(C)C)(C(C)C)O1 [Compound 16] |
| 900 ± 100 | CC(C)(C)[Si](OC[C@H]1O[C@@H](n2ccc(NC(=O)c3ccccc3)nc2=O)C[C@@H]1O[C@@H]1O[C@H](COC(=O)c2ccccc2)[C@@H](OC(=O)c2ccccc2)[C@H]1OC(=O)c1ccccc1)(c1ccccc1)c1ccccc1 [Compound 37] |
| 2600 ± 200 | O=C(Nc1ccn([C@@H]2O[C@H](CO)[C@@H](O)[C@H]2O[C@@H]2O[C@H](COC(=O)c3ccccc3)[C@@H](OC(=O)c3ccccc3)[C@H]2OC(=O)c2ccccc2)c(=O)n1)c1ccccc1 [Compound 13] |

Same assay, conditions: single-stranded fluorescent biosensor, primary screening

| Inhibitory effect on TDP1 activity (in words) | SMILES |
| --- | --- |
| not inhibited | Nc1ncnc2c1ncn2[C@@H]1O[C@H](CO)[C@@H](O)[C@H]1O[C@@H]1O[C@H](CO)[C@@H](O)[C@H]1O [Compound 1] |
| not inhibited | Nc1ccn([C@@H]2O[C@H](CO)[C@@H](O)[C@H]2O[C@@H]2O[C@H](CO)[C@@H](O)[C@H]2O)c(=O)n1 [Compound 12] |
| did not observe any inhibitory effect | Cc1cn([C@H]2C[C@H](O[C@@H]3OC[C@@H](O)[C@@H](O)[C@H]3O)[C@@H](CO)O2)c(=O)[nH]c1=O [Compound 27] |
| did not observe any inhibitory effect | O=c1[nH]c(=O)n([C@H]2C[C@H](O[C@@H]3OC[C@@H](O)[C@@H](O)[C@H]3O)[C@@H](CO)O2)cc1I [Compound 40] |
| not inhibited | O=c1ccn([C@H]2C[C@H](O[C@@H]3O[C@H](CO)[C@@H](O)[C@H]3O)[C@@H](CO)O2)c(=O)[nH]1 [Compound 38] |
| not inhibited | Nc1ncnc2c1ncn2[C@H]1C[C@H](O[C@@H]2O[C@H](CO)[C@@H](O)[C@H]2O)[C@@H](CO)O1 [Compound 22] |
| weak inhibitory effect | O=c1ccn([C@H]2C[C@H](O)[C@@H](CO[C@@H]3O[C@H](CO)[C@@H](O)[C@H]3O)O2)c(=O)[nH]1 [Compound 47] |
| not inhibited | Nc1nc2c(ncn2[C@H]2C[C@H](O[C@@H]3O[C@H](CO)[C@@H](O)[C@H]3O)[C@@H](CO)O2)c(=O)[nH]1 [Compound 34] |
| not inhibited | Nc1ncnc2c1ncn2[C@H]1C[C@H](O)[C@@H](CO[C@@H]2O[C@H](CO)[C@@H](O)[C@H]2O)O1 [Compound 43] |
| not inhibited | Nc1ccn([C@H]2C[C@H](O[C@@H]3O[C@H](CO)[C@@H](O)[C@H]3O)[C@@H](CO)O2)c(=O)n1 [Compound 35] |
| not inhibited | Cc1cn([C@H]2C[C@H](O)[C@@H](CO[C@@H]3O[C@H](CO)[C@@H](O)[C@H]3O)O2)c(=O)[nH]c1=O [Compound 44] |
| not inhibited | Nc1nc2c(ncn2[C@@H]2O[C@H](CO)[C@@H](O)[C@H]2O[C@@H]2O[C@H](CO)[C@@H](O)[C@H]2O)c(=O)[nH]1 [Compound 8] |
| not inhibited | O=c1ccn([C@@H]2O[C@H](CO)[C@@H](O)[C@H]2O[C@@H]2O[C@H](CO)[C@@H](O)[C@H]2O)c(=O)[nH]1 [Compound 17] |
| not inhibited | Cc1cn([C@@H]2O[C@H](CO)[C@@H](O)[C@H]2O[C@@H]2O[C@H](CO)[C@@H](O)[C@H]2O)c(=O)[nH]c1=O [Compound 5] |
| weak inhibitory effect | Nc1nc2c(ncn2[C@H]2C[C@H](O)[C@@H](CO[C@@H]3O[C@H](CO)[C@@H](O)[C@H]3O)O2)c(=O)[nH]1 [Compound 45] |
| did not observe any inhibitory effect | CC(=O)O[C@H]1[C@H](O[C@H]2C[C@H](n3cc(C)c(=O)[nH]c3=O)O[C@@H]2CO)OC[C@@H](OC(C)=O)[C@H]1OC(C)=O [Compound 28] |
| not inhibited | Nc1ccn([C@H]2C[C@H](O)[C@@H](CO[C@@H]3O[C@H](CO)[C@@H](O)[C@H]3O)O2)c(=O)n1 [Compound 46] |

| SMILES | Inhibitory effect on TDP1 activity (in words) |
| --- | --- |
| Cc1cn([C@H]2C[C@H](O[C@@H]3O[C@H](CO)[C@@H](O)[C@H]3O)[C@@H](COP(=O)(O)O)O2)c(=O)[nH]c1=O.N.N [Compound 26] | does not lead to the noticeable inhibitory effect |
| Cc1cn([C@H]2C[C@H](O[C@@H]3O[C@H](COP(=O)([O-])[O-])[C@@H](O)[C@H]3O)[C@@H](CO)O2)c(=O)[nH]c1=O.[Na+].[Na+] [Compound 25] | does not lead to the noticeable inhibitory effect |
| Cc1cn([C@@H]2C[C@H](O[C@@H](C=O)O[C@@H](C=O)CO)[C@@H](CO)O2)c(=O)[nH]c1=O [Compound 30] | did not lead to the noticeable inhibitory activity |
